{"source": "patent US20230123334A1", "about": "“AMINO LIPID COMPOUND, PREPARATION METHOD THEREFOR, AND APPLICATION THEREOF” (SHENZHEN SHENXIN BIOTECHNOLOGY CO., LTD., priority 2020, published 2023)"}
{"tested_on": "HEK293 cells", "assay": "Preliminary screening as mRNA vectors, EGFP mRNA transfection of HEK293 cells", "assay_type": "cell-based", "conditions": "EGFP mRNA 50 ng per well, 96-well plates; percentage of GFP fluorescent cells relative to total number of cells (Hoechst)", "how_it_was_run": "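Screening format: EGFP mRNA transfection (50 ng/well) into HEK293 in 10% FBS-supplemented DMEM. Percent green fluorescent cells, normalised to Hoechst nuclear count, gave the value; Lipofectamine2000 was the reference transfectant.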", "units": {"Absolute mRNA transfection efficiency in HEK293 cells": "%"}}
{"compound": "CCCCCCCCCCCCCCCCCCNc1nc(NCCCN2CCN(C)CC2)nc(SCCCCCCCCCCCCCCC)n1", "note": "[Compound D9S15N18]", "Absolute mRNA transfection efficiency in HEK293 cells": 0.3}
{"compound": "CCCCCCCCCCCCCCCCSc1nc(NCCCCCC)nc(NCCCN2CCN(C)CC2)n1", "note": "[Compound D9S16N6]", "Absolute mRNA transfection efficiency in HEK293 cells": 85.7}
{"compound": "CCCCCCCCCCCCCCCCSc1nc(NCCCCCCC)nc(NCCCN2CCN(C)CC2)n1", "note": "[Compound D9S16N7]", "Absolute mRNA transfection efficiency in HEK293 cells": 97.9}
{"compound": "CCCCCCCCCCCCCCCCSc1nc(NCCCCCCCC)nc(NCCCN2CCN(C)CC2)n1", "note": "[Compound D9S16N8]", "Absolute mRNA transfection efficiency in HEK293 cells": 71.3}
{"compound": "CCCCCCCCCCCCCCCCSc1nc(NCCCCCCCCC)nc(NCCCN2CCN(C)CC2)n1", "note": "[Compound D9S16N9]", "Absolute mRNA transfection efficiency in HEK293 cells": 54.4}
{"compound": "CCCCCCCCCCCCCCCCSc1nc(NCCCCCCCCCCC)nc(NCCCN2CCN(C)CC2)n1", "note": "[Compound D9S16N11]", "Absolute mRNA transfection efficiency in HEK293 cells": 68.4}
{"compound": "CCCCCCCCCCCCCCCCSc1nc(NCCCCCCCCCCCC)nc(NCCCN2CCN(C)CC2)n1", "note": "[Compound D9S16N12]", "Absolute mRNA transfection efficiency in HEK293 cells": 12.4}
{"compound": "CCCCCCCCCCCCCCCCSc1nc(NCCCCCCCCCCCCC)nc(NCCCN2CCN(C)CC2)n1", "note": "[Compound D9S16N13]", "Absolute mRNA transfection efficiency in HEK293 cells": 1.4}
{"compound": "CCCCCCCCCCCCCCCCSc1nc(NCCCCCCCCCCCCCCC)nc(NCCCN2CCN(C)CC2)n1", "note": "[Compound D9S16N15]", "Absolute mRNA transfection efficiency in HEK293 cells": 0.2}
{"compound": "CCCCCCCCCCCCCCCCNc1nc(NCCCN2CCN(C)CC2)nc(SCCCCCCCCCCCCCCCC)n1", "note": "[Compound D9S16N16]", "Absolute mRNA transfection efficiency in HEK293 cells": 0.1}
{"compound": "CCCCCCCCCCCCCCCCCCNc1nc(NCCCN2CCN(C)CC2)nc(SCCCCCCCCCCCCCCCC)n1", "note": "[Compound D9S16N18]", "Absolute mRNA transfection efficiency in HEK293 cells": 0.1}
{"compound": "CCCCCCCCCCCCCCCCCCSc1nc(NCCCCCC)nc(NCCCN2CCN(C)CC2)n1", "note": "[Compound D9S18N6]", "Absolute mRNA transfection efficiency in HEK293 cells": 55.4}
{"compound": "CCCCCCCCCCCCCCCCCCSc1nc(NCCCCCCC)nc(NCCCN2CCN(C)CC2)n1", "note": "[Compound D9S18N7]", "Absolute mRNA transfection efficiency in HEK293 cells": 86.6}
{"compound": "CCCCCCCCCCCCCCCCCCSc1nc(NCCCCCCCC)nc(NCCCN2CCN(C)CC2)n1", "note": "[Compound D9S18N8]", "Absolute mRNA transfection efficiency in HEK293 cells": 25.8}
{"compound": "CCCCCCCCCCCCCCCCCCSc1nc(NCCCCCCCCC)nc(NCCCN2CCN(C)CC2)n1", "note": "[Compound D9S18N9]", "Absolute mRNA transfection efficiency in HEK293 cells": 7.6}
{"compound": "CCCCCCCCCCCCCCCCCCSc1nc(NCCCCCCCCCCC)nc(NCCCN2CCN(C)CC2)n1", "note": "[Compound D9S18N11]", "Absolute mRNA transfection efficiency in HEK293 cells": 4.3}
{"compound": "CCCCCCCCCCCCCCCCCCSc1nc(NCCCCCCCCCCCC)nc(NCCCN2CCN(C)CC2)n1", "note": "[Compound D9S18N12]", "Absolute mRNA transfection efficiency in HEK293 cells": 1.7}
{"compound": "CCCCCCCCCCCCCCCCCCSc1nc(NCCCCCCCCCCCCC)nc(NCCCN2CCN(C)CC2)n1", "note": "[Compound D9S18N13]", "Absolute mRNA transfection efficiency in HEK293 cells": 0.0}
{"compound": "CCCCCCCCCCCCCCCCCCSc1nc(NCCCCCCCCCCCCCCC)nc(NCCCN2CCN(C)CC2)n1", "note": "[Compound D9S18N15]", "Absolute mRNA transfection efficiency in HEK293 cells": 0.0}
{"compound": "CCCCCCCCCCCCCCCCCCSc1nc(NCCCCCCCCCCCCCCCC)nc(NCCCN2CCN(C)CC2)n1", "note": "[Compound D9S18N16]", "Absolute mRNA transfection efficiency in HEK293 cells": 0.1}
{"compound": "CCCCCCCCCCCCCCCCCCNc1nc(NCCCN2CCN(C)CC2)nc(SCCCCCCCCCCCCCCCCCC)n1", "note": "[Compound D9S18N18]", "Absolute mRNA transfection efficiency in HEK293 cells": 0.1}
{"compound": "CCCCCCNc1nc(NCC2CCN(C)CC2)nc(SCCCCCC)n1", "note": "[Compound D10S6N6]", "Absolute mRNA transfection efficiency in HEK293 cells": 0.3}
{"compound": "CCCCCCCNc1nc(NCC2CCN(C)CC2)nc(SCCCCCC)n1", "note": "[Compound D10S6N7]", "Absolute mRNA transfection efficiency in HEK293 cells": 5.5}
{"compound": "CCCCCCCCNc1nc(NCC2CCN(C)CC2)nc(SCCCCCC)n1", "note": "[Compound D10S6N8]", "Absolute mRNA transfection efficiency in HEK293 cells": 1.4}
{"compound": "CCCCCCCCCNc1nc(NCC2CCN(C)CC2)nc(SCCCCCC)n1", "note": "[Compound D10S6N9]", "Absolute mRNA transfection efficiency in HEK293 cells": 1.2}
{"compound": "CCCCCCCCCCCNc1nc(NCC2CCN(C)CC2)nc(SCCCCCC)n1", "note": "[Compound D10S6N11]", "Absolute mRNA transfection efficiency in HEK293 cells": 4.0}
{"compound": "CCCCCCCCCCCCNc1nc(NCC2CCN(C)CC2)nc(SCCCCCC)n1", "note": "[Compound D10S6N12]", "Absolute mRNA transfection efficiency in HEK293 cells": 9.6}
{"compound": "CCCCCCCCCCCCCNc1nc(NCC2CCN(C)CC2)nc(SCCCCCC)n1", "note": "[Compound D10S6N13]", "Absolute mRNA transfection efficiency in HEK293 cells": 22.7}
{"compound": "CCCCCCCCCCCCCCCNc1nc(NCC2CCN(C)CC2)nc(SCCCCCC)n1", "note": "[Compound D10S6N15]", "Absolute mRNA transfection efficiency in HEK293 cells": 7.9}
{"compound": "CCCCCCCCCCCCCCCCNc1nc(NCC2CCN(C)CC2)nc(SCCCCCC)n1", "note": "[Compound D10S6N16]", "Absolute mRNA transfection efficiency in HEK293 cells": 41.5}
{"compound": "CCCCCCCCCCCCCCCCCCNc1nc(NCC2CCN(C)CC2)nc(SCCCCCC)n1", "note": "[Compound D10S6N18]", "Absolute mRNA transfection efficiency in HEK293 cells": 41.4}
{"compound": "CCCCCCSc1nc(NCC2CCN(C)CC2)nc(SCCCCCC)n1", "note": "[Compound D10S6S6]", "Absolute mRNA transfection efficiency in HEK293 cells": 14.4}
{"compound": "CCCCCCCSc1nc(NCC2CCN(C)CC2)nc(SCCCCCC)n1", "note": "[Compound D10S6S7]", "Absolute mRNA transfection efficiency in HEK293 cells": 19.7}
{"compound": "CCCCCCCCSc1nc(NCC2CCN(C)CC2)nc(SCCCCCC)n1", "note": "[Compound D10S6S8]", "Absolute mRNA transfection efficiency in HEK293 cells": 6.6}
{"compound": "CCCCCCCCCSc1nc(NCC2CCN(C)CC2)nc(SCCCCCC)n1", "note": "[Compound D10S6S9]", "Absolute mRNA transfection efficiency in HEK293 cells": 14.7}
{"compound": "CCCCCCCCCCSc1nc(NCC2CCN(C)CC2)nc(SCCCCCC)n1", "note": "[Compound D10S6S10]", "Absolute mRNA transfection efficiency in HEK293 cells": 22.4}
{"compound": "CCCCCCCCCCCSc1nc(NCC2CCN(C)CC2)nc(SCCCCCC)n1", "note": "[Compound D10S6S11]", "Absolute mRNA transfection efficiency in HEK293 cells": 15.9}
{"compound": "CCCCCCCCCCCCSc1nc(NCC2CCN(C)CC2)nc(SCCCCCC)n1", "note": "[Compound D10S6S12]", "Absolute mRNA transfection efficiency in HEK293 cells": 41.2}
{"compound": "CCCCCCCCCCCCCCSc1nc(NCC2CCN(C)CC2)nc(SCCCCCC)n1", "note": "[Compound D10S6S14]", "Absolute mRNA transfection efficiency in HEK293 cells": 54.4}
{"compound": "CCCCCCCCCCCCCCCSc1nc(NCC2CCN(C)CC2)nc(SCCCCCC)n1", "note": "[Compound D10S6S15]", "Absolute mRNA transfection efficiency in HEK293 cells": 40.0}
{"compound": "CCCCCCCCCCCCCCCCSc1nc(NCC2CCN(C)CC2)nc(SCCCCCC)n1", "note": "[Compound D10S6S16]", "Absolute mRNA transfection efficiency in HEK293 cells": 85.5}
{"compound": "CCCCCCCCCCCCCCCCCCSc1nc(NCC2CCN(C)CC2)nc(SCCCCCC)n1", "note": "[Compound D10S6S18]", "Absolute mRNA transfection efficiency in HEK293 cells": 72.8}
{"compound": "CCCCCCCSc1nc(NCCCCCC)nc(NCC2CCN(C)CC2)n1", "note": "[Compound D10S7N6]", "Absolute mRNA transfection efficiency in HEK293 cells": 2.0}
{"compound": "CCCCCCCNc1nc(NCC2CCN(C)CC2)nc(SCCCCCCC)n1", "note": "[Compound D10S7N7]", "Absolute mRNA transfection efficiency in HEK293 cells": 0.9}
{"compound": "CCCCCCCCNc1nc(NCC2CCN(C)CC2)nc(SCCCCCCC)n1", "note": "[Compound D10S7N8]", "Absolute mRNA transfection efficiency in HEK293 cells": 1.3}
{"compound": "CCCCCCCCCNc1nc(NCC2CCN(C)CC2)nc(SCCCCCCC)n1", "note": "[Compound D10S7N9]", "Absolute mRNA transfection efficiency in HEK293 cells": 4.6}
{"compound": "CCCCCCCCCCCNc1nc(NCC2CCN(C)CC2)nc(SCCCCCCC)n1", "note": "[Compound D10S7N11]", "Absolute mRNA transfection efficiency in HEK293 cells": 25.3}
{"compound": "CCCCCCCCCCCCNc1nc(NCC2CCN(C)CC2)nc(SCCCCCCC)n1", "note": "[Compound D10S7N12]", "Absolute mRNA transfection efficiency in HEK293 cells": 63.7}
{"compound": "CCCCCCCCCCCCCNc1nc(NCC2CCN(C)CC2)nc(SCCCCCCC)n1", "note": "[Compound D10S7N13]", "Absolute mRNA transfection efficiency in HEK293 cells": 70.8}
{"compound": "CCCCCCCCCCCCCCCNc1nc(NCC2CCN(C)CC2)nc(SCCCCCCC)n1", "note": "[Compound D10S7N15]", "Absolute mRNA transfection efficiency in HEK293 cells": 67.3}
{"compound": "CCCCCCCCCCCCCCCCNc1nc(NCC2CCN(C)CC2)nc(SCCCCCCC)n1", "note": "[Compound D10S7N16]", "Absolute mRNA transfection efficiency in HEK293 cells": 44.3}
{"compound": "CCCCCCCCCCCCCCCCCCNc1nc(NCC2CCN(C)CC2)nc(SCCCCCCC)n1", "note": "[Compound D10S7N18]", "Absolute mRNA transfection efficiency in HEK293 cells": 45.8}
{"compound": "CCCCCCCSc1nc(NCC2CCN(C)CC2)nc(SCCCCCCC)n1", "note": "[Compound D10S7S7]", "Absolute mRNA transfection efficiency in HEK293 cells": 19.3}
{"compound": "CCCCCCCCSc1nc(NCC2CCN(C)CC2)nc(SCCCCCCC)n1", "note": "[Compound D10S7S8]", "Absolute mRNA transfection efficiency in HEK293 cells": 32.9}
{"compound": "CCCCCCCCCSc1nc(NCC2CCN(C)CC2)nc(SCCCCCCC)n1", "note": "[Compound D10S7S9]", "Absolute mRNA transfection efficiency in HEK293 cells": 33.5}
{"compound": "CCCCCCCCCCSc1nc(NCC2CCN(C)CC2)nc(SCCCCCCC)n1", "note": "[Compound D10S7S10]", "Absolute mRNA transfection efficiency in HEK293 cells": 55.8}
{"compound": "CCCCCCCCCCCSc1nc(NCC2CCN(C)CC2)nc(SCCCCCCC)n1", "note": "[Compound D10S7S11]", "Absolute mRNA transfection efficiency in HEK293 cells": 60.8}
{"compound": "CCCCCCCCCCCCSc1nc(NCC2CCN(C)CC2)nc(SCCCCCCC)n1", "note": "[Compound D10S7S12]", "Absolute mRNA transfection efficiency in HEK293 cells": 80.4}
{"compound": "CCCCCCCCCCCCCCSc1nc(NCC2CCN(C)CC2)nc(SCCCCCCC)n1", "note": "[Compound D10S7S14]", "Absolute mRNA transfection efficiency in HEK293 cells": 88.7}
{"compound": "CCCCCCCCCCCCCCCSc1nc(NCC2CCN(C)CC2)nc(SCCCCCCC)n1", "note": "[Compound D10S7S15]", "Absolute mRNA transfection efficiency in HEK293 cells": 90.4}
